Measured values reported in patent US9963451B2, “Fused ring pyrimidine compound and pest control agent containing the same” (Mitsui Chemicals Agro, Inc., priority 2013, dated 2018).

Key:
Format in all cases: in vivo
[1] = tested on: Myzus persicae; assay: Test Example 12: insecticidal test against Myzus persicae (leaf spray on young white radish plant, single and combined chemicals); conditions: after 5 days
Experimental: Insecticidal Test Against Myzus persicae
A chemical solution which has been diluted to have a pre-determined concentration was sprayed on a leaf part of young white radish plant having 1-stage larvae Myzus persicae present thereon. After air drying, they were left to stand in an incubator at 25° C. and the numbers of living insects and dead insects were examined after 5 days (2 series). Meanwhile, in Table 32, when combination of two types of test chemicals are used (i.e., A and B), the combination of the two types was described as A+B, and in the concentration column (ppm), it was described as concentration of A+concentration of B.

[2] = tested on: Laodelphax striatellus; assay: whole plant or invertebrate; conditions: Laodelphax striatellus, in Oryza sativa, 144 h, read-out: Insect death ratio (%)
Experimental: (§1) Insecticidal Test Against Laodelphax striatellus
A chemical solution diluted to have a pre-determined concentration was sprayed to young rice plant (breed: Koshihikari) followed by air drying. Then, it was added to a glass test tube (diameter of 3 cm and height of 10 cm) added with water together with ten 3-stage larvae of Laodelphax striatellus. The tube was then covered. The number of living insects was determined after 6 days and the dead insect ratio was calculated. There were two series, i.e., 10 insects per group. Meanwhile, in Table 29, when combination of two types of test chemicals are used (i.e., A and B), the combination of the two types was described as A+B, and in the concentration column (ppm), it was described as concentration of A+concentration of B.

[3] = tested on: Laodelphax striatellus; assay: Test Example 14: insecticidal test against Laodelphax striatellus (spray on young rice plant, comparison with Reference Examples 3 and 4); conditions: after 6 days
Experimental: as §1
A young rice plant (breed: Koshihikari) was sprayed with a chemical solution which has been diluted to a pre-determined concentration followed by air drying. Then, it was added to a glass test tube (diameter of 3 cm and height of 10 cm) added with water, together with ten Laodelphax striatellus larvae (3-stage), and then the tube was covered with a cap. The number of dead insects was determined after 6 days and the insect death ratio was calculated. There were two series, i.e., 10 insects per group.
Meanwhile, as a comparative compound, Reference Example 3 disclosed in the pamphlet of International Publication No. 2013/144088 and Reference Example 4 with C═O position different from the present compound were used.

[4] = tested on: Nilaparvata lugens; assay: Test Example 13: insecticidal test against Nilaparvata lugens using paddy field rice cultivating box (granule treatment); conditions: for Adult insect death ratio (%): adults released 22 days after treatment, after 5 days; for Number of larvaes (number of insects): next generation larvae after 22 days
Experimental: Insecticidal Test Against Nilaparvata lugens Using Paddy Field Rice Cultivating Box
A rice plant (breed: Koshihikari) cultivated in cultivating box was treated with granules with a pre-determined chemical amount, and it was transplanted in two pots, i.e., four plants per 1/5000a pot. Twenty-two days after the treatment, 10 female adults of Nilaparvata lugens were released and the young plants were covered with a mesh. Then, the insect death ratio was determined after 5 days. In addition, the number of the next generation larvae was determined after 22 days. There were two series. Meanwhile, in Table 33, when combination of two types of test chemicals (i.e., A and B), the combination of the two types was described as A+B, and in the chemical amount column (g a.i./box), it was described as chemical amount of A+chemical amount of B.

[5] = tested on: Nilaparvata lugens; assay: Test Example 3: insecticidal test against Nilaparvata lugens (spray on young rice plant); conditions: after 6 days
Experimental: Insecticidal Test Against Nilaparvata lugens
2.5 ml of acetone solution prepared to have the test compound at the pre-determined concentration described in the following Table 28 was sprayed to young rice plant followed by air drying. Then, it was added to a glass bottle (diameter of 3 cm and height of 13 cm) added with water. Ten sensitive Nilaparvata lugens (3-stage) were released therein, and then the bottle was covered with a cap. After keeping them in an incubator at 25° C., the numbers of living insects and dead insects were determined after 6 days (two series). Meanwhile, as a comparative compound, imidacloprid was used.

[6] = tested on: Nilaparvata lugens; assay: as above; conditions: after 6 days; remark: listed apart in the source
[7] = tested on: Chilo suppressalis; assay: Test Example 10: insecticidal test against Chilo suppressalis (rice stem dip, single and combined chemicals); conditions: Chilo suppressalis, 144 h; 100 ppm, after 6 days; read-out: Insect death ratio (%)
Experimental: Insecticidal Test Against Chilo suppressalis
A stem part was cut from a rice plant (breed: Koshihikari) cultivated in water and it was immersed in a chemical solution which has been diluted to have a pre-determined concentration. After air drying, it was put into a 9 cm polyethylene cup having a water-wetted filter paper laid on the bottom thereof, and 3-stage larvae of Chilo suppressalis were released and covered. They were left to stand in an incubator at 25° C., and the numbers of living insects and dead insects were examined after 6 days. There were two series, i.e., 5 insects per group. Meanwhile, in Table 30, when combination of two types of test chemicals are used (i.e., A and B), the combination of the two types was described as A+B, and in the concentration column (ppm), it was described as concentration of A+concentration of B.

[8] = tested on: Pyricularia oryzae; assay: whole plant or invertebrate; conditions: Pyricularia oryzae, 168 h, read-out: Rice blast control value

CC1=NNC(=O)N(/N=C/c2cccnc2)C1 [Pymetrozine, pymetrozine]
Insect death ratio (%) ([1]; 1 ppm): 89%
pest or weed control at 10 ppm ([2]; 10 ppm, after 6 days): 30%

CN1COCN(Cc2cnc(Cl)s2)/C1=N\[N+](=O)[O-] [Thiamethoxam, thiamethoxam]
Insect death ratio (%) ([1]; 1 ppm): 94%

CSc1cc2n(Cc3ccc(Cl)nc3)c(C)cc(=O)n2n1 [compound 154, 4-((6-chloropyridin-3-yl)methyl)-5-methyl-2-(methylthio)-pyrazolo[1,5-a]pyrimidin-7(4H)-one]
Insect death ratio (%) ([3]; 10 ppm): 100%
Adult insect death ratio (%) ([4]; 2 g a.i./box granules): 90%
Number of larvaes (number of insects) ([4]; 2 g a.i./box granules): 0 number of insects
Insect death ratio (%) ([1]; 10 ppm): 70%
Sensitive insect death ratio (%) ([5]; 10 ppm spray): 100%
Sensitive insect death ratio (%) ([5]; 100 ppm spray): 100%
pest or weed control at 3 ppm ([2]; after 6 days): 40%
Resistant insect death ratio (%) ([6]; 10 ppm spray): 100%
Resistant insect death ratio (%) ([6]; 100 ppm spray): 100%
pest or weed control at 100 ppm [7]: 0%
pest or weed control at 100 ppm [8]: 0%

CSc1nc2n(Cc3ccc(Cl)nc3)c(=O)cc(C)n2n1 [Reference Example 4, 4-((6-chloropyridin-3-yl)methyl)-7-methyl-2-(methylthio)-[1,2,4]triazolo[1,5-a]pyrimidin-5(4H)-one, reference compound]
Insect death ratio (%) ([3]; 1000 ppm): 40%

lepimectin
Insect death ratio (%) ([1]; 10 ppm): 88%

CC(=O)N1C(=O)N(NCc2cccnc2)Cc2cc(C(F)(C(F)(F)F)C(F)(F)F)ccc21 [Pyrifluquinazon, pyrifluquinazon]
Insect death ratio (%) ([1]; 1 ppm): 100%

CSc1nc2n(Cc3ccc(Cl)nc3)c(C)cc(=O)n2n1 [compound 5, 4-((6-chloropyridin-3-yl)methyl)-5-methyl-2-(methylthio)-[1,2,4]triazolo[1,5-a]pyrimidin-7(4H)-one]
Insect death ratio (%) ([3]; 10 ppm): 100%
Insect death ratio (%) ([1]; 100 ppm): 73%
Sensitive insect death ratio (%) ([5]; 10 ppm spray): 100%
Sensitive insect death ratio (%) ([5]; 100 ppm spray): 100%
pest or weed control at 3 ppm ([2]; after 6 days): 20%
Resistant insect death ratio (%) ([6]; 10 ppm spray): 95%
Resistant insect death ratio (%) ([6]; 100 ppm spray): 100%
pest or weed control at 100 ppm [7]: 0%
pest or weed control at 100 ppm [8]: 0%

CSc1nc2n(Cc3ccc(Br)nc3)ccc(=O)n2n1 [Reference Example 3, 4-((6-bromopyridin-3-yl)methyl)-2-(methylthio)-[1,2,4]triazolo[1,5-a]pyrimidin-7(4H)-one, reference compound]
Insect death ratio (%) ([3]; 100 ppm): 21%

N#CCNC(=O)c1cnccc1C(F)(F)F [Flonicamid, flonicamid]
Insect death ratio (%) ([1]; 1 ppm): 79%

CN/C(=N/CC1CCOC1)N[N+](=O)[O-] (stereo not shown) [Dinotefuran, dinotefuran]
Insect death ratio (%) ([1]; 10 ppm): 75%
pest or weed control at 1 ppm [2]: 45%

CC(C)CC(C)c1sccc1NC(=O)c1cn(C)nc1C(F)(F)F (stereo not shown) [Penthiopyrad, penthiopyrad]
Insect death ratio (%) ([1]; 100 ppm): 13%

O=[N+]([O-])NC1=NCCN1Cc1ccc(Cl)nc1 [Imidacloprid, imidacloprid, reference compound]
Insect death ratio (%) ([1]; 1 ppm): 100%
Sensitive insect death ratio (%) ([5]; 10 ppm spray): 100%
Sensitive insect death ratio (%) ([5]; 100 ppm spray): 100%
pest or weed control at 0.1 ppm ([2]; 0.1 ppm, after 6 days): 30%
Resistant insect death ratio (%) ([6]; 10 ppm spray): 21.7%
Resistant insect death ratio (%) ([6]; 100 ppm spray): 50.4%

C[Si](C)(C)CC(O)(Cn1cncn1)c1ccc(F)cc1 (stereo not shown) [Simeconazole, simeconazole, reference compound]
Adult insect death ratio (%) ([4]; 2.25 g a.i./box granules): 20%
Number of larvaes (number of insects) ([4]; 2.25 g a.i./box granules): 69 number of insects

milbemectin
Insect death ratio (%) ([1]; 10 ppm): 86%
